Calls of active or inactive are those of the source. How the calls were made is not given here.
These compounds were tested against Induced myeloid leukemia cell differentiation protein Mcl-1 (Homo sapiens) (UniProt Q07820) (assay: blockers of Bid binding to Mcl-1 – biochemical, TR-FRET, dose response (AID 1418)). Settings: Mcl-1/Bid peptide binding, TR-FRET (europium/Dy647), 2 hr.
Induced myeloid leukemia cell differentiation protein Mcl-1 (Homo sapiens), sequence (Q07820 whole entry, looked up): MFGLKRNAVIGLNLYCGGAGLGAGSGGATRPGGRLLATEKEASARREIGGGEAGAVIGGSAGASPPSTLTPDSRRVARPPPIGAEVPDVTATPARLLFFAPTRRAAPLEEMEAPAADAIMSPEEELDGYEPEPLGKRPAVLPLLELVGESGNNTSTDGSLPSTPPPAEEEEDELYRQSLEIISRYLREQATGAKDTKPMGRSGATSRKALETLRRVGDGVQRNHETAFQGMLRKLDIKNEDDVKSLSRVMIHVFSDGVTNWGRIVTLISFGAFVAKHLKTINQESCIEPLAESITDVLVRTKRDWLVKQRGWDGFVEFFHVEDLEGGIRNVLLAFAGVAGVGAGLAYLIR
For O=C(CP(=O)(c1ccccc1)c1ccccc1)Nc1nc2ccc(Cl)cc2s1, the IC50 was > 54 µM (inactive).
With O=C1N=C2N(CCN3CCCCC3)c3ccccc3N2/C1=C\c1ccc([N+](=O)[O-])o1 the IC50 was > 54 µM (inactive).
Cc1ccc2nc(N3CC(=O)Nc4ccccc43)nc(-c3ccccc3)c2c1 was tested, and the IC50 was > 54 µM (inactive).
For CC1C(=O)CCN(C(C)C)C1C (centres undefined), the IC50 was > 54 µM (inactive).
With O=C(NCc1cccnc1)c1cc2nc(-c3ccc4c(c3)OCO4)cc(C(F)(F)F)n2n1 the IC50 was > 54 µM (inactive).
In the case of Cc1ccc(-n2c(SCC(=O)NCc3ccco3)nc3sc4c(c3c2=O)CC(C)(C)SC4)cc1, the IC50 is reported as > 54 µM (inactive).
In the case of CN(C)CCCCOc1ccccc1-c1ccccc1, the IC50 is reported as > 54 µM (inactive).
For O=C(Nc1ccc2oc(=O)ccc2c1)c1ccc(-c2cccc([N+](=O)[O-])c2)o1, the IC50 was 0.65 µM.
O=C(c1ccco1)N1C(=O)c2cccc3c(S(=O)(=O)N4CCCC4)ccc1c23 was tested, and the IC50 was > 54 µM (inactive).
CSc1nc(N(CCO)CCO)c2sc3nc(-c4ccco4)c4c(c3c2n1)CCC4 was tested, and the IC50 was > 54 µM (inactive).
CC(Cc1ccccc1)NCC(=O)Nc1cc(N(C)C)nc2ccccc12 (centres undefined) was tested, and the IC50 was > 54 µM (inactive).
With O=S(=O)(c1ccccc1)N1CCN(Cc2ccccc2C(F)(F)F)CC1 the IC50 was > 54 µM (inactive).
Cc1ccc2[nH]c(=O)c(-c3nc4cc(C)ccn4c3NCc3ccco3)cc2c1 gave an IC50 of 12.6 µM.
NS(=O)(=O)c1ccc(N/N=C/c2ccc(O)c(O)c2O)c([N+](=O)[O-])c1 gave an IC50 of 3.17 µM.
In the case of COc1cc(S(=O)(=O)Nc2cccc(C)c2)ccc1NC(=O)c1ccncc1, the IC50 is reported as > 54 µM (inactive).
With CCNc1ccc2c(Cl)cc(=O)oc2c1 the IC50 was > 54 µM (inactive).
NC(=S)N/N=C/c1coc2c(ccc3ccccc32)c1=O gave an IC50 of 4.99 µM.
Cc1nnc(SCc2cc(=O)oc3ccc4ccccc4c23)n1Cc1ccccc1 was tested, and the IC50 was > 54 µM (inactive).
With Nc1c(C(=O)NCCc2ccccc2)c2nc3ccccc3nc2n1CCN1CCOCC1 the IC50 was > 54 µM (inactive).
For COc1ccccc1NC(=O)c1cn(C)c(=O)c2cc(OC)c(OC)cc12, the IC50 was > 54 µM (inactive).
CC1(C(=O)NNC(=O)C2CCCCC2)CC1(Cl)Cl (centres undefined) was tested, and the IC50 was > 54 µM (inactive).
With O=C(CSc1nnc2scc(-c3ccccc3)n12)N1CCN(Cc2ccccc2)CC1 the IC50 was > 54 µM (inactive).
For CN(C)S(=O)(=O)c1cccc(NC(=O)COC(=O)c2cc3ccccc3oc2=O)c1, the IC50 was > 54 µM (inactive).
With Cc1cc(C)c2c(c1)C1C=CCC1C(c1ccc(S(=O)(=O)N3CCOCC3)cc1)N2 (centres undefined) the IC50 was > 54 µM (inactive).
COc1cc(/C=C2\SC(=O)N(c3ccc(Cl)cc3)C2=O)cc([N+](=O)[O-])c1O was tested, and the IC50 was 1.58 µM.
Work on COc1ccc2[nH]c3c4c(ccc3c2c1)C(=O)C=CC4=O yielded an IC50 of 2.51 µM.
In the case of O=C(CN1C(=O)c2cccc3cccc1c23)Nc1ccc(S(=O)(=O)N2CCOCC2)cc1, the IC50 is reported as > 54 µM (inactive).
In the case of CSc1cccc(NC(=O)CN(C)S(=O)(=O)c2ccccc2)c1, the IC50 is reported as > 54 µM (inactive).
In the case of COc1ccc(C2Nc3ccccc3C(=O)N2O)cc1OC (centres undefined), the IC50 is reported as > 54 µM (inactive).
Nc1cccc(C(=O)OCC(=O)Nc2cccc3c2C(=O)c2ccccc2C3=O)c1 gave an IC50 of 2.38 µM.
CN(C)S(=O)(=O)c1cc(S(=O)(=O)N(C)C)c(Cl)cc1N was tested, and the IC50 was > 54 µM (inactive).
For COC(=O)CSc1nc(C)c(C)c(C)c1C(N)=O, the IC50 was > 54 µM (inactive).
O=C(O)COc1ccccc1C(Nc1cccnc1)c1cc(Cl)c2cccnc2c1O (centres undefined) showed an IC50 of 2.52 µM.
CNC(=O)CN(C1CCCCC1)S(=O)(=O)c1ccc(OC)c(Cl)c1 was tested, and the IC50 was > 54 µM (inactive).
In the case of Cc1ccc(-c2nc(N3CCOCC3)sc2C(=O)N2CCCCC2)cc1, the IC50 is reported as > 54 µM (inactive).
In the case of Cc1ccc(-c2ccc(/C=C3/NC(=O)NC3=O)o2)cc1[N+](=O)[O-], the IC50 is reported as “inactive”.
CN(C)c1ccnc2sc(C(N)=O)c(N)c12 was tested, and the IC50 was > 54 µM (inactive).
In the case of O=C(Cn1nc(C(F)(F)F)c2c1CCCC2)NCc1ccco1, the IC50 is reported as > 54 µM (inactive).
In the case of CCCCOc1ccc(CC2C(=O)N(C)C(=O)N(C)C2=O)cc1, the IC50 is reported as > 54 µM (inactive).
Compound O=C(Nc1cnn(C23CC4CC(CC(C4)C2)C3)c1)c1cnn2c(C(F)(F)F)cc(-c3ccco3)nc12 has an IC50 of 1.38 µM.
COc1ccc(C2c3c(C)nn(-c4ccccc4)c3NC(=O)N2c2ccccc2)cc1 (centres undefined) was tested, and the IC50 was > 54 µM (inactive).
For O=C(Nn1cnnc1)c1ccccc1CCc1ccccc1, the IC50 was > 54 µM (inactive).
With CCOC(=O)c1c(C)oc2c1c(C(c1cccnc1)N1CCOCC1)c(O)c1ccccc12 (centres undefined) the IC50 was 0.85 µM.
With COc1ccc(CCNc2nc(-c3sc(C)nc3C)cs2)cc1OC the IC50 was “inactive”.
In the case of Cc1c(C(=O)OCc2ccccc2)[nH]c2c1C(=O)CC(c1ccco1)C2 (centres undefined), the IC50 is reported as > 54 µM (inactive).
For C=CCNCCCOc1ccc(Cl)cc1Br, the IC50 was > 54 µM (inactive).
For Cc1cccc(Cn2c(C)nc3c(N)c(C)c(C)cc32)c1, the IC50 was > 54 µM (inactive).
With COc1cc(/C=C2/SC(=S)N(CC3CCCO3)C2=O)ccc1O (centres undefined) the IC50 was > 54 µM (inactive).
COC(=O)c1cccc(NC(=S)Nc2cccc(Cl)c2Cl)c1 was tested, and the IC50 was > 54 µM (inactive).

Source: PubChem BioAssay AID1418 (Emory University Molecular Libraries Screening Center, 2008)
